Measured values as given in US20230190933A1, “Immunologically Active Peptide-Biliverdin Conjugate, Preparation Method Therefor and Application Thereof” (priority 2020, published 2023).
Where no end group is shown, it is not given here.

What was measured:
[1] = test system: cervical cancer U14 mouse model; settings: 5 mg kg^-1 intraperitoneally; 2nd, 4th and 7th day
[2] = test system: in-situ model of pancreatic cancer Pan02; settings: 4 mg kg^-1, presence and absence of light (730 nm, 0.5 W/cm^2), 15th day
[3] = test system: mouse breast cancer cells 4T1; settings: absence of light; 100 uL of 0.2 mg mL^-1 intraperitoneally on day 1, 2, 4, 8; 28 days
[4] = temperature rise in vitro under laser irradiation; format: physicochemical; settings: 0.2 mg mL^-1, 730 nm laser, 0.3 W/cm^2, 10 min
Protocol: Firstly, biliverdin-Mn metal complex was chemically synthesized by biliverdin and excess manganese acetate tetrahydrate, and the biliverdin-Mn-[…] conjugate was prepared from biliverdin-Mn metal complex and […] according to the aforementioned chemical synthesis method. […] 1 mL of this conjugate (at a concentration of 0.2 mg mL^-1) was irradiated at 730 nm laser (0.3 W/cm^2) for 10 min, and the temperature rise of the conjugate solution was investigated.

lung cancer Lewis = test: combination of photothermal immunotherapy and immunotherapy (interferon); format: in vivo; settings: conjugate 3 mg kg^-1 combined with interferon 20U/ mouse, initial volume 300 mm^3
Protocol: (§1) The biliverdin-[…] conjugate was prepared from biliverdin molecule and […] according to the above chemical synthesis method.

skin melanoma B16-F10 = test: as above; format: in vivo; settings: conjugate 3 mg kg^-1 combined with interferon 20U/ mouse, initial volume 300 mm^3
Protocol: as §1

[5] = test system: mouse colon cancer cells ct-26
Protocol: According to the standard tumor mouse modeling method, C57BL/6 mouse model was established, and the mouse colon cancer cells ct-26 were inoculated subcutaneously, and then these mice were fed in SPF environment. […] The mice were divided into the following four groups: blank group (normal saline), conjugate group (no light group) and conjugate group (light group), with 10 mice in each group. These mice were administered once on the 1st, 3rd, 8th and 12th day with the administration concentration being 2 mg kg^-1. Wherein, the mice of the conjugate (light group) were irradiated with laser once 4 hours after administration on the first day, and the parameters were as follows: the laser intensity was 0.5 W/cm^2 and the laser wavelength was 808 nm. The tumor inhibition of mice during the whole treatment cycle (the cycle is 45 days) was monitored.

[6] = cyclic (three) photothermal heating curves; format: physicochemical; settings: compared with biliverdin molecule; three heating cycles
[7] = test system: Human Umbilical Vein Endothelial Cells HUVEC; test: MTT colorimetric method, incubation in the dark; format: cell-based; settings: different concentration gradients
Protocol: The biliverdin-[…] conjugate was prepared from biliverdin molecule and […] according to the chemical synthesis method of Example 1. […] The prepared conjugates with different concentration gradients were incubated with Human Umbilical Vein Endothelial Cells HUVEC in the dark, and the biological safety of the conjugates was evaluated by MTT colorimetric method.

biliverdin-EQLESIINFEKLTE conjugate [Example 13]
immune effect (CD4+T and CD8+T cells in spleen and draining lymph nodes) [1]: has immune effect

biliverdin-Ga-FKFEFKFE conjugate [Example 10]
immune promoting factor content in tumor (IFN-7) [2]: up-regulate the organism’s immunity
immune suppressing factor content in tumor (IL-4 and IL-10) [2]: down-regulate the immunosuppressive behavior

biliverdin-IMDQVPFSV conjugate [Example 8]
anti-tumor behavior (tumor volume) [3]: potential immune anti-tumor activity

biliverdin-Mn-YLEPGPVTA conjugate [Example 7]
photo-thermal conversion effect (temperature rise) [4]: good photo-thermal conversion effect

biliverdin-PDRAHYNI conjugate [Example 15]
combined inhibitory effect on tumor (lung cancer Lewis): significantly enhances the anti-tumor effect
combined inhibitory effect on tumor (skin melanoma B16-F10): significantly enhances the anti-tumor effect

biliverdin-QQKFQFQFEQQ conjugate [Example 9]
therapeutic effect of tumor photothermal immunotherapy (tumor inhibition curve) ([5]; 2 mg kg^-1 on day 1, 3, 8, 12, 45 day cycle): good therapeutic effect
tumor clearance ([5]; light group, 2 mg kg^-1, 808 nm 0.5 W/cm^2, 29th day after treatment): all the mice tumors were cleared
tumor recurrence ([5]; light group, monitored from the 30th day to the 45th day): can effectively prevent tumor recurrence

biliverdin-SIINFEKL conjugate [Example 1]
cyclic stability of photothermal heating [6]: better cyclic stability
photothermal heating effect [6]: better heating effect
cytotoxicity (cell activity) [7]: no obvious cytotoxicity
